Data set [1] deals with pepsin, trypsin and chymotrypsin. Put plainly: Stability against gastrointestinal enzymes observed by SEC. The class given is in vitro ADME. As to conditions: 0.1 mg/ml; pepsin pH 2.0 2.5 hrs, then trypsin + chymotrypsin pH 8.0 2.5 hrs, 37°C; Biosep SEC-S2000, UV 214 nm. The protocol: (§1) The stability of the synthesised peptides against gastrointestinal proteases was assessed in vitro by the method of Wu and Ding. The peptide solution (0.1 mg/ml, 0.5 ml) was incubated with 0.5 ml of a 0.05% pepsin solution (0.1 M HCl at pH 2.0) for 2.5 hrs at 37°C. In the successive pepsin-pancreatin digestion test, the peptide solution was adjusted to pH 8.0 after pepsin digestion. Then, 0.5 ml of pancreatin solution [potassium phosphate buffer (0.1 M, pH 8.0) containing 0.025% (w/v) chymotrypsin and 0.025% (w/v) trypsin] was added to the solution. The mixture was incubated for another 2.5 hrs at 37°C. The control (without digestion) consisted of peptide solution incubated in buffer solutions (HCl and potassium phosphate buffer) and was carried out alongside the experiment. After enzymatic treatment, the pepsin solution and pepsin-pancreatin solution were boiled for 10 min to stop the digestion and then centrifuged at 10,000 rpm for 10 min. The supernatants were freeze-dried and used for the measurement of ACE inhibitory activity. The stability of the purified peptides against gastrointestinal enzymes was analysed by SEC.
Figure 4 Stability of peptide AHEPVK against gastrointestinal enzymes observed by SEC chromatograms. Separation was performed on a Biosep SEC-S2000 column (300 × 7.8 mm). Mobile phase consisted of 45% acetonitrile containing 0.1% TFA eluted at a flow rate of 1.0 ml/min. […]
(In gel filtration, larger molecules generally elute earlier.)

Data set [2] concerns the target T1, Angiotensin I-converting enzyme (ACE) (Homo sapiens, UniProt P12821).
T1 construct: purchased Dojindo Laboratories ACE kit-WST
Put plainly: ACE inhibitory activity after simulated gastrointestinal digestion. The class given is biochemical. The following applies: mean, n = 3; for inhibition at 100 µg/mL (stock): 0.1 mg/ml, pepsin 2.5 hrs, then pH 8.0, 0.025% chymotrypsin and 0.025% trypsin, another 2.5 hrs, read-out: ACE inhibitory activity after pepsin-pancreatin digestion; for inhibition at 100 µg/mL (stock) / ACE inhibitory activity after digestion by pepsin: 37°C; for ACE inhibitory activity without gastrointestinal digestion (control): peptide solution 0.1 mg/ml incubated in buffer solutions (HCl and potassium phosphate buffer); for ACE inhibitory activity after digestion by pepsin: peptide solution 0.1 mg/ml with 0.05% pepsin (0.1 M HCl, pH 2.0), 2.5 hrs. The protocol: (§2) In the current study, ACE inhibitory activity was determined using an ACE inhibitory assay kit (ACE kit-WST, Dojindo Laboratories, Kumamoto, Japan). The assay was carried out according to the protocol provided by the manufacturer. Absorbances of the reactions were measured using a Sunrise® ELISA microplate reader (Tecan, Grödig, Austria) at 450 nm. The ACE inhibitory activity of the samples was calculated using the formula given in the protocol. The concentration of the ACE inhibitor required to inhibit 50% of ACE activity under the above assay conditions was defined as the IC50.
as §1
Figure 3 Effect of simulated gastrointestinal digestion on the ACE inhibitory activity of peptides AHEPVK and GPSMR. Control: The peptide solutions (0.1 mg/ml) were incubated in buffer solutions (HCl and potassium phosphate buffer). P: The peptide solutions were incubated with 0.05% pepsin solution for 2.5 hrs at 37°C. P + T + C: The peptide solutions were successively digested with pepsin for 2.5 hrs. They were further incubated in pancreatin solution for another 2.5 hrs at 37°C. The ACE inhibitory activity are expressed as mean ± standard deviation (n = 3).

In data set [3] the target is T1, Angiotensin I-converting enzyme (ACE). Kind of data set: ACE inhibitory activity assay (ACE kit-WST). The following applies: synthesised peptide, absorbance 450 nm, triplicate, mean ± standard deviation. The class given is biochemical. The protocol:
as §2
The analysis of ACE inhibitory activity was carried out in triplicate and result was reported as mean ± standard deviation. Mean differences of ACE inhibitory activity in SEC fractions was analyzed using one-way ANOVA in Statgraphics Plus 3.0 at p < 0.05.

The next data set deals with ACE. The following applies: cited from earlier work. The protocol: Peptide LRIPVA from spinach inhibited 50% of the ACE at a concentration as low as 0.38 μM [29]. However, there were also studies reported on similar IC50 value with the current study. […] It was predicted to remain stable throughout the digestion process. […] Jimsheena and Gouda had shown the important role of stere ... || (+ 2 further places)

[4] abbreviates: peptides from milk and bonita fish.

Entries after “also recorded” stand apart in the source; their conditions may differ. Where two headings read alike, the source gives them in different places. Peptide text beside a SMILES is read from it.

Data on eight molecules can be found in PMC3827828, “Novel angiotensin I-converting enzyme inhibitory peptides derived from an edible mushroom, Pleurotus cystidiosus O.K. Miller identified by LC-MS/MS” (BMC Complementary and Alternative Medicine, 2013).

The IC50 is the concentration that inhibits the measured activity by half.

T1 sequence (P12821 30-1306, species assumed): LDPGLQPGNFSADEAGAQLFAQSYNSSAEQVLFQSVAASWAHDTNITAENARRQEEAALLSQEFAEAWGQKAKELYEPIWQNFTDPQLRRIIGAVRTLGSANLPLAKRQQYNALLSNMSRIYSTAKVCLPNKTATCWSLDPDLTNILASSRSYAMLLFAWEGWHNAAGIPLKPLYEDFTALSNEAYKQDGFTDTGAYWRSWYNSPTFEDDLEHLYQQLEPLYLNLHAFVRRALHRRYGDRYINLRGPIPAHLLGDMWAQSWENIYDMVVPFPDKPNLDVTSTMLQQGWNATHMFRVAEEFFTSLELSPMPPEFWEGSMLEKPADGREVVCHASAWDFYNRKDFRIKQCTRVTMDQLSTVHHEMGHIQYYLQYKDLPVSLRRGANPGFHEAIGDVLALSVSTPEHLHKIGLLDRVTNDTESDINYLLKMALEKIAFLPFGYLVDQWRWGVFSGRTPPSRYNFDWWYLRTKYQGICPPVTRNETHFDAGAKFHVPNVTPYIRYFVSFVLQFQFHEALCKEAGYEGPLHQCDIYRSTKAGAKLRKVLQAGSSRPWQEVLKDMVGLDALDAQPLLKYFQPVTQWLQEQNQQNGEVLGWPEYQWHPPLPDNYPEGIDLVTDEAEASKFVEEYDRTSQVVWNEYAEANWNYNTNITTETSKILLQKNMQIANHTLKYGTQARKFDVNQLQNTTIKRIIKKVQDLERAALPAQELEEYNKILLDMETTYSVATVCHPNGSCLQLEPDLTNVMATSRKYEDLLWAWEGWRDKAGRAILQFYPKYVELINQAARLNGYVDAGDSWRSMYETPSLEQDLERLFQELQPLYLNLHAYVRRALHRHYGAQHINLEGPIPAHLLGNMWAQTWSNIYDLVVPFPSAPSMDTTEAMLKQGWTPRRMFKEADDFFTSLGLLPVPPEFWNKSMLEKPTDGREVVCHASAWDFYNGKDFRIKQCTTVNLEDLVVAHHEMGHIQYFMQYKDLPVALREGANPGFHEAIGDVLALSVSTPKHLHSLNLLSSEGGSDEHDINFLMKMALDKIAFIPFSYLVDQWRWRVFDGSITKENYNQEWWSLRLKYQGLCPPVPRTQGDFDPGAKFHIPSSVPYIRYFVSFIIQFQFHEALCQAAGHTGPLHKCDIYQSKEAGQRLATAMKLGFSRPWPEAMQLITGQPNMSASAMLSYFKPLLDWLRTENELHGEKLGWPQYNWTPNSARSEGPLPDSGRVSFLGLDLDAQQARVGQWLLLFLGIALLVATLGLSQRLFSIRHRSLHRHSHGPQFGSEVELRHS

As for `CC(C)[C@H](NC(=O)[C@@H]1CCCN1C(=O)[C@H](CCC(=O)O)NC(=O)[C@H](Cc1c[nH]cn1)NC(=O)[C@H](C)N)C(=O)N[C@@H](CCCCN)C(=O)O` [AHEPVK] (H-AHEPVK-OH), the “Stability of peptide against gastrointestinal enzymes (SEC chromatograms)” value in data set [1] is listed as “stable throughout gastrointestinal digestion; also recorded: confirmed the stability of AHEPVK against digestive enzymes; also recorded: remained stable following gastrointestinal digestion”. In data set [2], the inhibition at 100 µg/mL (stock) is 95.9%, the “ACE inhibitory activity without gastrointestinal digestion (control)” value is recorded as 80.27% and the “ACE inhibitory activity after digestion by pepsin” value is given as 95.38%. For the same molecule, 62.8 µM corresponded to half-maximal inhibition in data set [3] (IC50).

In the case of `CSCC[C@H](NC(=O)[C@H](CO)NC(=O)[C@@H]1CCCN1C(=O)CN)C(=O)N[C@@H](CCCNC(=N)N)C(=O)O` [GPSMR] (H-GPSMR-OH), in data set [1], the “Stability of peptide against gastrointestinal enzymes (SEC chromatograms)” value is “hydrolysed after digestion; also recorded: hydrolysed into smaller fragments”. In data set [2], the inhibition at 100 µg/mL (stock) is 96%, the “ACE inhibitory activity without gastrointestinal digestion (control)” value is on record as 67.08% and the “ACE inhibitory activity after digestion by pepsin” value is reported as 92.22%. This molecule also gave an IC50 in data set [3] of 278 µM.

For `C[C@H](CS)C(=O)N1CCC[C@H]1C(=O)O` [captopril], the “Inhibition pattern against ACE” value in the data set with ACE is on record as “competitive manner”.

Regarding GPCSR [peptide from sweet potato], the IC50 in the data set with ACE (peptides from sweet potato) was 276 µM.

With GTEKC [peptide from sweet potato], the half-inhibitory concentration (IC50) with ACE (peptides from sweet potato) is 61.7 µM.

In the case of LKPNM [pentapeptide from bonita fish], in the data set with ACE (setting [4]), the 50% inhibitory concentration (IC50) was 2.4 µM.

For the molecule LRIPVA [peptide from spinach], the IC50 in the data set on ACE (peptide from spinach) is 0.38 µM.

Consider PYVRYL [hexapeptide from milk], for which the IC50 in the data set on ACE (setting [4]) was 2.4 µM.
